Experimental data from patent US6869603B2, “Lipoprotein lipase and lipoprotein lipase activators in the treatment of inflammatory conditions” (The Brigham and Women's Hospital, Inc., priority 2001, dated 2005).
Entries after “also recorded” stand apart in the source; their conditions may differ. Blank lines part the entries; values can stand above or below the molecule they belong to.

How the values were obtained:
[1] = biological target: T1, PPAR-alpha-ligand binding domain (LBD) (Homo sapiens, UniProt Q07869); assay: PPAR-alpha-LBD/GAL4 chimeric construct activation (luciferase) in transiently transfected primary bovine aortic endothelial cells; type: cell-based; conditions: for Effect on VLDL/LPL-mediated PPAR-alpha-LBD activation: agent added to VLDL/LPL treatment; for Effect on LPL/LDL− dependent activation of PPAR-alpha: agent added to LDL−/LPL
T1 construct: yeast GAL4 (fusion partner); expressed in transfected cells; host or cells: primary bovine aortic endothelial cells (passage 3-6)
T1 sequence (Q07869 239-466 limits assumed): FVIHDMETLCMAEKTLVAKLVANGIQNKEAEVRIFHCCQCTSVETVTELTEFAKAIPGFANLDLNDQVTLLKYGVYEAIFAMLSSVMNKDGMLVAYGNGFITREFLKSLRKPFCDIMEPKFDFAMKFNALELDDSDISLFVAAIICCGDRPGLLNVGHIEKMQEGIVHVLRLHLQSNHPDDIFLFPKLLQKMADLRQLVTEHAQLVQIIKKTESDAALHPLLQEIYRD
T1 sequence (P04386 1-147 partner limits assumed): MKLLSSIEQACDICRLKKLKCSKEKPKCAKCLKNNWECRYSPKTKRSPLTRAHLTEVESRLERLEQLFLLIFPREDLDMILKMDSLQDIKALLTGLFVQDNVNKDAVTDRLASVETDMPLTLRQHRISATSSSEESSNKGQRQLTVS
Experimental: Transient transfection: Transient transfection was carried out in 24-well plates at 2.3×10^4 primary bovine aortic EC (passage 3-6) per well using Superfect (Qiagen) or Fugene (F. Hoffmann-La Roche). PCMX-β-galactosidase expression vector was used for transfection control. LPL and LPL mutant expression vectors have been previously characterized. Luciferase (Pharmingen, San Diego, Calif.) and P-galactosidase activity were measured according to manufacturer's protocols.
LPL lipolysis of TG-LP generates PPARα ligands: We tested if LPL generates endogenous PPAR-alpha ligands from TG-LP by analyzing activation of chimeric PPAR-alpha-ligand binding domain (LBD) constructs in yeast GAL4 assays. […] Maximal induction was highest for VLDL (21 fold), followed by LDL (14 fold) and HDL (7 fold).
(§1) Transient transfection: Transient transfection was carried out in primary (passage 3 to 6) bovine aortic endothelial cells using the Superfect method (Qiagen, Germany) according to manufacturer's directions. Briefly, cells were plated in 24-well plates at 2.3×10^4 cells per well in DMEM containing 10% fetal calf serum. After 16 h of growth, cells were washed with HBSS and transfected with medium containing Superfect/DNA (ratio 5.5/1) for 4 hours or with FuGene (1.5/1) overnight. Reporter construct pUASx4-TK-luc, chimeric human PPAR-alpha-LBD constructs, PPAR-alpha and LDL receptor (LDLr) overexpression vectors, and the VCAM-1 promoter-luc, have been described previously. A PCMX-B-galactosidase expression vector was used as a transfection control. Cells were maintained overnight in medium, followed by treatment with compounds for 10 hrs in DMEM medium containing 1% FCS (for PPAR-alpha-LBD constructs) and 1% Nutridoma SP (for VCAM-1 promoter studies). Cells lysed in buffer (Pharmingen) were assayed for luciferase activity using a reported assay system (Pharmingen) according to the manufacturer's instructions. β-galactosidase activity was monitored at 540 nm using CRPTG (Boeringer Mannheim) as substrate.

VCAM-1 promoter = assay: VCAM-1 promoter-luc transient transfection in bovine endothelial cells (BoEC); type: cell-based
Experimental: as §1, with “substrate. LDL− augments TNFα-mediated VCAM-1 expression: Surface expression of VCAM-1 was studied in HUVEC activated by TNFα. […]” for “substrate.”

VCAM-1 = assay: Cell surface ELISA of VCAM-1 expression in HUVEC; type: cell-based, human; conditions: single stimulus
Experimental: Cell Culture: Human endothelial cells were isolated from umbilical veins and cultured in M199 medium (BioWittaker) containing penicillin/streptomycin, Fungozom, ECGF and 5% fetal calf serum. Cells from passage 3 to 5 were used for experiments. Cells were pretreated with 100 uM fenofibric acid or WY 14643 for 24 h and with LDL species/LPL for 1 h prior to addition of 50 ng/ml TNFα. Subsequent duration of incubations varied. Prior to any procedure cells were washed with ice-cold PBS.
Cell surface ELISA assays were preformed in 96-well plates on confluent monolayers of HUVEC. Treated cells were maintained on ice for 10 minutes, washed with cold PBS and incubated with monoclonal antibodies raised against human VCAM-1. VCAM-1 expression was visualized using alkaline phosphate secondary antibody and measured at […].
LDL− augments TNFα-mediated VCAM-1 expression: Surface expression of VCAM-1 was studied in HUVEC activated by TNFα. Cell stimulation with LDL− lead to approximately a two-fold increase in VCAM-1 expression. In presence of TNFα, VCAM-1 expression was increased 5-fold. […] Here we found a 50% decrease in VCAM-1 expression induced by LDL− and TNFα but pretreated with PPAR-α agonists. […] The VCAM-1 activation was reduced by two-fold in cells ectopically expressing human PPAR-alpha.

[2] = test system: acyl-coenzymeA-oxidase (ACO); assay: ACO mRNA expression (Northern blot) in HepG2 and primary human macrophages; type: cell-based
Experimental: Cell Culture: Circulating human monocytes were isolated from healthy volunteers. Differentiated cells (day 7-10) were treated in M199 medium. Peritoneal Mφ were isolated after 5% thioglycollate broth injection into 2-6 month old PPAR-alpha^+/+ and PPAR-alpha^−/− mice. Mφ were cultured in 10% FCS/DMEM 24 h prior to stimulation. HepG2 cells (ATCC, Manassas, Va.) were cultured in 10% FCS/DMEM.
RNA analysis: Total cell RNA was isolated using RNAEasy kit (Qiagen, Valencia, Calif.), separated using a 1% agarose gel, transferred to a Hydrobone membrane (Amersham, Piscataway, N.J.) and Northern blotting was then performed. cDNA probes for LPL and ACO were obtained from ATCC (Manassas, Va.).
LPL lipolysis of TG-LP activates PPARα-regulated genes: We tested if activation of PPAR-alpha by VLDL/LPL induced expression of an established PPAR-alpha target gene, acyl-coenzymeA-oxidase (ACO). […] In vivo, increased ACO expression has been shown in LPL-overexpressing mice.

Effect on LPL/LDL− dependent activation of PPAR-alpha [1]: inhibited; also recorded: abolished
Molecule: ApoCIII: natural LPL inhibitor

PPAR-alpha-LBD activation by lipolytic products (significant activators of PPAR-alpha) ([1]; lipid added alone): activates PPAR-alpha-LBD
Molecule: monoacylglycerols [MAG]

Effect on VLDL/LPL-mediated PPAR-alpha-LBD activation [1]: None of these treatments had any effect
Molecule: heparin

Effect on VLDL-induced ACO response [2]: inhibited this VLDL response
Molecule: CCCCCCCCCCC[C@@H](C[C@@H]1OC(=O)[C@H]1CCCCCC)OC(=O)[C@H](CC(C)C)NC=O [tetrahydrolipstatin]
Effect on VLDL/LPL-mediated PPAR-alpha-LBD activation [1]: inhibited LPL-mediated PPAR-alpha-LBD activation in a dose-dependent fashion

Effect on LPL/LDL− dependent activation of PPAR-alpha [1]: abolished
B1: heat-inactivated LPL: heat-inactivated lipoprotein lipase (protein, UniProt P06858 28-475, looked up)
Lipoprotein lipase: ADQRRDFIDIESKFALRTPEDTAEDTCHLIPGVAESVATCHFNHSSKTFMVIHGWTVTGMYESWVPKLVAALYKREPDSNVIVVDWLSRAQEHYPVSAGYTKLVGQDVARFINWMEEEFNYPLDNVHLLGYSLGAHAAGIAGSLTNKKVNRITGLDPAGPNFEYAEAPSRLSPDDADFVDVLHTFTRGSPGRSIGIQKPVGHVDIYPNGGTFQPGCNIGEAIRVIAERGLGDVDQLVKCSHERSIHLFIDSLLNEENPSKAYRCSSKEAFEKGLCLSCRKNRCNNLGYEINKVRAKRSSKMYLKTRSQMPYKVFHYQVKIHFSGTESETHTNQAFEISLYGTVAESENIPFTLPEVSTNKTYSFLIYTEVDIGELLMLKLKWKSDSYFSWSDWWSSPGFAIQKIRVKAGETQKKVIFCSREKVSHLQKGKAPAVFVKCHDKSLNKKSG
modifications: heat-inactivated
PPAR-alpha-LBD activation after enzyme treatment of lipoproteins ([1]; enzyme plus lipoprotein): failed to induce PPAR-alpha-LBD activation

Continued, molecule first:

Molecule: cyclochalasin
Effect on VLDL/LPL-mediated PPAR-alpha-LBD activation [1]: None of these treatments had any effect

Molecule: CC(C)(Oc1ccc(C(=O)c2ccc(Cl)cc2)cc1)C(=O)O [Fenofibric acid]
Decrease in LDL−/TNFα dependent VCAM-1 induction (VCAM-1 promoter; cells co-transfected with PPAR-alpha vector): 60%
Decrease in LDL−/TNFα dependent VCAM-1 induction (VCAM-1 promoter; cells co-transfected with control vector): 40%

Molecule: TNFα
Increase in VCAM-1 surface expression (VCAM-1): 5 fold
